The values that follow come from paper PMC11503492, “Activity-Based DNA-Encoded Library Screening for Selective Inhibitors of Eukaryotic Translation” (ACS Central Science, 2024).

Each structure is given as a SMILES string. Some results are limits rather than exact numbers.

Assay [1] relates to PCSK9-FS[1:33]-GFP translation. Put plainly: WG IVTT microplate activity assay, PCSK9-FS[1:33]-GFP frameshift counter template. The class given is biochemical, wheat germ. The source says:
(§1) A commercially available wheat germ lysate (WG) IVTT system was employed to assay translation inhibition. Translation activity was detected via a GFP reporter, and the assay was miniaturized to picoliter-scale microfluidic droplets (Figure 1A,B). […] PCSK9 and RPL27 were truncated to the first 33 and 32 amino acids, respectively (PCSK9[1:33] and RPL27[1:32]). The sequences contain distinct PF846 stall sites and were both fused to a GFP reporter. The GFP reporter and a frameshift mutant of PCSK9[1:33] (PCSK9-FS[1:33]), which mutates the nascent chain sequence while maintaining a nearly identical mRNA sequence, were included as negative controls.[13] […] Sequence sensitivity was further confirmed by an N-terminal deletion series of PCSK9[1:33]-GFP; deletion of N-terminal residues increasingly ablated PCSK9[1:33]-GFP translation sensitivity to PF846 (Figure 1D). The WG IVTT assay was miniaturized using a previously described microfluidic circuit modified for longer incubation times (Figure S1)[27] using PF846 as a positive control compound, and assay statistical quality was calculated (Z′=0.7) (Figure 1E). To confirm detection of translation inhibition from library beads, hygromycin B, a nonselective aminoglycoside translation inhibitor, was coupled to beads displaying a photocleavable linker (PC-HygB). UV irradiation releases hygromycin from the bead, allowing it to interact with the WG IVTT assay in the droplet. PC-HygB bead photocleavage supernatant inhibited PCSK9[1:33]-GFP translation both in a microplate assay and in microfluidic droplets (Figure 1F,G, S2). Assay statistical quality using PC-HygB positive control beads was similarly calculated (Z′ = 0.75, Figure 1H). […]
(§2) 436 Microplate IVTT Assays
(§3) 437 Wheat germ lysate IVTT plate assays were prepared as 5 µL reactions. Wheat germ lysate
(§4) 438 (3 µL) was added to test compound or vehicle control (1 µL) in a 384-well black microplate
(§5) 439 and the reaction was incubated (10 min, RT). Template (1 µL) was added and reaction
(§6) 440 progress was immediately monitored (λex = 480 nm, λem = 530 nm, 27 °C, 2 h). Rela-
(§7) 441 tive activity was calculated using the slope of fluorescence increase over time (at 15–30
(§8) 442 min post reaction initiation) for compound samples relative to that of the DMSO vehicle
443 control. All microplate experiments contained 25 ng/µL plasmid, except for assays with
445 respectively. HeLa lysate IVTT plate assays were prepared as 5.5 µL reactions. […]

The subject of another assay is GFP reporter translation. Kind of assay: WG IVTT activity assay, GFP reporter control. The class given is biochemical, wheat germ. The note with it: negative control.
Text: as §1, with “To confirm detection of translation inhibition from library beads, hygromycin B, a nonselective aminoglycoside translation inhibitor, was coupled to beads displaying a photocleavable linker (PC-HygB). UV irradiation releases hygromycin from the bead, allowing it to interact with the WG IVTT assay in the droplet. PC-HygB bead photocleavage supernatant inhibited PCSK9[1:33]-GFP translation both in a microplate assay and in microfluidic droplets (Figure 1F,G, S2).” left out
(§9) 440 progress was immediately monitored (λex = 480 nm, λem = 530 nm, 27 °C, 2 h). […]
(§10) 441 tive activity was calculated using the slope of fluorescence increase over time (at 15–30 […]

Assay [2] relates to PCSK9[1:33]-GFP N-terminal deletions. Kind of assay: WG IVTT end point assay of PCSK9[1:33]-GFP N-terminal deletions. The note with it: deletion of 15 or more N-terminal residues, 100 μM PF846. The format is biochemical, wheat germ.
Description: (C) PF846 dose–response IVTT activity assays of PCSK9[1:33]-GFP, PCSK9-FS[1:33]-GFP, RPL27[1:32]-GFP, and the GFP reporters and (D) end point assays (100 μM PF846) of PCSK9[1:33]-GFP N-terminal deletions were conducted to determine sensitivity to PF846 in WG IVTT (% activity relative to DMSO control).
For assay [3], the system named is PCSK9 expression in HepG2 cells. Kind of assay: HepG2 cellular assay, PCSK9 Western blot. The format is cell-based. Particulars: 16 h treatment, 5 or 50 µM, triplicate, normalized to DMSO. On the procedure: Reaction buffer (1 µL) and template (0.5 µL) were added and reaction progress was
Relative activity was cal-
450 culated using the slope of fluorescence increase over time (15–30 min post reaction initia-
Gene blocks were purchased from IDT
Digestion with Sgf I and PmeI allowed for
Sequence-verified plasmids
460 were cloned into DH5α E. coli for standard large-scale DNA plasmid preparation.
Gene blocks were purchased
Digestion with NdeI and XhoI
470 (4.5 g/L high-glucose DMEM, 2 mM L-glutamine, 10% fetal bovine serum, 1% penicillin-
Cells were lysed (100 µL RIPA buffer,
Protein lysates (24 µg) were separated by denaturing polyacrylamide
480 PCSK9 rabbit monoclonal antibody, 5% BSA in PBS-T). The PCSK9 probed membrane
HRP-labeled bands were visualized
Figure S12. […] PCSK9 expression in HepG2 cells
treated 16 h with PF846 or screening hit 8 (5 or 50 µM) or vehicle control (DMSO) was analyzed in triplicate
(also on this page, place not known: S12894 GAPDH pro m DMSO 5 μM DMSO μM 5 μM 50 μM PCSK9 PF846 hit8 50)
(1 picture or pasted object on this page, not shown here)
In general terms: Immunoblotting shows a protein as a band on a membrane.

Assay [4] deals with PCSK9[1:33]-GFP translation. Put plainly: Wheat germ lysate (WG) IVTT microplate activity assay, PCSK9[1:33]-GFP template. The class given is biochemical. The note with it: WG IVTT.
Text: as §1, §2, §3, §4, §5, §6, §7, §8
443 control. […]

In assay [5] the test system is RPL27[1:32]-GFP translation. Kind of assay: WG IVTT activity assay, RPL27[1:32]-GFP template. The format is biochemical, wheat germ.
Text: A commercially available wheat germ lysate (WG) IVTT system was employed to assay translation inhibition. Translation activity was detected via a GFP reporter, and the assay was miniaturized to picoliter-scale microfluidic droplets (Figure 1A,B). […] PCSK9 and RPL27 were truncated to the first 33 and 32 amino acids, respectively (PCSK9[1:33] and RPL27[1:32]). The sequences contain distinct PF846 stall sites and were both fused to a GFP reporter. The GFP reporter and a frameshift mutant of PCSK9[1:33] (PCSK9-FS[1:33]), which mutates the nascent chain sequence while maintaining a nearly identical mRNA sequence, were included as negative controls.[13] […] The WG IVTT assay was miniaturized using a previously described microfluidic circuit modified for longer incubation times (Figure S1)[27] using PF846 as a positive control compound, and assay statistical quality was calculated (Z′=0.7) (Figure 1E). […] Assay statistical quality using PC-HygB positive control beads was similarly calculated (Z′ = 0.75, Figure 1H). […]
429 of encoding region identifiers was then determined using a UMI aggregation algorithm; […]
433 manually determined threshold (10) were discarded. […]
as §9, §10
Figure S11. […] Compound 8 (black) and PF846 (gray) were analyzed […]

Assay [6] deals with MST1[1:39]-GFP translation. The arrangement: method as in PMID 28323820. Particulars: cited from earlier work.

For the compound `O=C(c1ccc(-n2nnc3cccnc32)cc1)N(c1ncccc1Cl)[C@@H]1CCCNC1` [PF846, PF-06446846, reference compound], the concentration for half-maximal inhibition (IC50) in assay [1] (PCSK9-FS[1:33]-GFP template, triplicate, undetectable IC50 marked >300) is above 300 µM; in assay [4] (PCSK9[1:33]-GFP template, triplicate, ± standard deviation of the mean) it was 3.9 ± 0.8 µM. In addition, in assay [1] (frameshift control), the “activity on PCSK9-FS[1:33]-GFP translation (in words)” value is “did not affect the translation”. In addition, the “activity on GFP reporter control translation (in words)” value with GFP reporter translation was “did not affect the translation”. Besides, the “PF846 activity on N-terminal deletions of PCSK9[1:33]-GFP (in words)” value in assay [2] is listed as “completely eliminates PF846 activity”. Also, in assay [3], the “PCSK9 protein levels in HepG2 cells (in words)” value is given as “significantly reduced”. Moreover, the “inhibition of PCSK9[1:33]-GFP translation (in words)” value in assay [4] was “inhibited the translation”. Moreover, the “activity on RPL27[1:32]-GFP translation (in words)” value in assay [5] is given as “inhibited the translation”. Besides, the “relative potency on MST1[1:39]-GFP versus PCSK9[1:33]-GFP and RPL27[1:32]-GFP translation (in words)” value in assay [6] is given as “more potently inhibits”.

One may read the IC50 as the concentration at which inhibition is half-maximal.
